pIC50: −log10 of the molar value.
How the values were obtained:
[1] = system: CEM-SS cells; assay: Cytotoxicity by uptake of TdR-H3 into total DNA in CEM-SS cells; type: cell-based; details: serial concentrations of compound
[2] = system: HIV-1; assay: Anti-HIV-1 syncytial plaque assay using CEM-SS cell monolayers; type: cell-based, human immunodeficiency virus type 1 (HIV-1); details: for IC50: HIV-1 syncytial plaque formation, CEM-SS cell monolayers, plaques counted at five days; for inhibition of HIV-1 activity in CEM-SS cells: in nanomolar concentration
From the text: In brief, CEM-SS cell monolayers were infected with HIV-1. Infected cells were overlaid with RPMI-1640 medium plus 10 percent fetal bovine serum (FBS) supplemented with different concentrations of inhibitor. Plaques were counted at five days after infection. In this assay HIV-1 syncytial plaques are seen as large, multicellular foci (10 to 25 nuclei/syncytium) that appear either brown and granular or clear. Since the number of HIV-1 syncytial plaques correlates with reverse transcriptase (RT) and p24 core antigen activity in the HIV-1 infected cell overlay fluids, the syncytial plaque assay can be used to quantify the amount of infectious virus. Reverse transcriptase activity was assayed according to a described procedure (B. J. Poeisz et al., Proc. Natl. Acad. Scie. (U.S.A.) 77, 7415 (1980)). The activity of p24 core antigen induced by HIV-1 infection of CEM-SS cells was measured spectrophotometrically using the commercial Coulter EIA.

[3] = system: HBV-induced DNA, core antigen (HBcAg) and "e" antigen (HBeAg); assay: Mechanism studies: cellular production of HBV-induced DNA, core antigen and e antigen; type: cell-based
[4] = system: HBV; assay: Inhibition of HBV replication in transfected HepG2 cells by ELISA; type: cell-based; details: read-out: anti-HBV activity (IC50)
From the text: These cells constituitively replicate HBV particles.

[5] = system: HepG2 cells; details: read-out: cytotoxicity (TC50); HepG2 cells transfected with HBV genomes; neutral red dye uptake
Protocol: Human hepatoblastomas (HepG2) cells were tranfected with plasmid DNA containing tandem copies of HBV genomes. These cells constituitively replicate HBV particles. HepG2 cells were treated with varying concentrations of CP-128 to determine the toxic cell concentration (TC50) by neutral red dye uptake. Also, the inhibitory concentration (IC50) of CP-128 for HBV replication was determined by ELISA.

| SMILES | IC50 [1] | IC50 [2] | inhibition of HIV-1 activity in CEM-SS cells [2] | effect on cellular production of HBV-induced DNA, core antigen (HBcAg) and "e" antigen (HBeAg) [3] | pIC50 [4] | CC50 [5] |
| --- | --- | --- | --- | --- | --- | --- |
| CCCCCCCCCCCC(=O)NCC(COP(=O)([O-])OCC[N+](C)(C)C)OCCCCCCCC (stereo not shown) [CP-130, 1-dodecanamido-2-octyloxypropyl-3-phosphocholine] | 67.2 µM | 0.11 µM | substantially inhibit |  |  |  |
| CCCCCCCCCCCCOCC(COP(=O)([O-])OCC[N+](C)(C)C)OCCCCCCCCCC (stereo not shown) [CP-129, 1-dodecyloxy-2-decyloxypropyl-3-phosphocholine] | 75.7 µM | 0.64 µM | substantially inhibit |  |  |  |
| CCCCCCCCCCCCCCCCSC1CCCC(OP(=O)([O-])OCC[N+](C)(C)C)C1 (stereo not shown) [INK-1, 3-hexadecylthio-cyclohexylphosphocholine] |  |  | substantially inhibit |  |  |  |
| CCCCCCCCCCCCOC(CNC(=O)CCCCCCCCCCC)COP(=O)([O-])OCC[N+](C)(C)C (stereo not shown) [CP-131, 1-dodecanamido-2-dodecyloxypropyl-3-phosphocholine] | 36.6 µM | 0.32 µM | substantially inhibit |  |  |  |
| CCCCCCCCCCCC(=O)NCC(COP(=O)([O-])OCC[N+](C)(C)C)OCCCCCCCCCC (stereo not shown) [CP-128, 1-dodecanamido-2-decyloxypropyl-3-phosphocholine] | 31.6 µM | 0.14 µM | substantially inhibit | inhibitory effect | 4.81 | 61.7 µM |

— US7141557B2, “Lipid analogs for treating viral infections” (Wake Forest University, priority 1994, dated 2006)
